Source: PMC9430695
Where two headings read alike, the source gives them in different places.

Assays:
Sortase A (SrtA) [1] = target: T1, Sortase A (SrtA) (Staphylococcus aureus, UniProt Q2FV99); test: biochemical; design: FRET cleavage of Abz-LPATG-Dap(Dnp)-NH2 by purified SrtA, fluorescence 309/420 nm
T1 construct: SrtA residues Gln-60-Lys-206 (SrtA ΔN59), from S. aureus USA300, 6 × His tag
Experimental: Fluorescence resonant energy transfer (FRET) was used to screen the effect of the SrtA inhibitor ([22]). Purified SrtA (4 μM) and hibifolin with different concentrations were added into a 100 μL reaction system, incubating at 37°C for 1 h. A fluorescent substrate peptide Abz-LPATG-Dap (Dnp)-NH2 (10 μM) (Beijing, China) was added to initiate the reaction. After incubating at 37°C for 20 min, the fluorescent microplate reader was measured with the excitation wavelength at 309 nm and the emission wavelength at 420 nm. Subsequently, a gradient concentration inhibition curve was performed and IC50 was calculated. When the inhibitory activity was greater than 60%, the compound was considered a potential inhibitor. The representative list of our nature compounds library has been compiled in Table S3 in Supplemental File 1 along with the results of the initial screening.

Sortase A (SrtA) [2] = target: T1, Sortase A (SrtA); test: fluorescence quenching (KA); also FRET inhibition of purified SrtA, IC50 […]; assay type: binding; conditions: read-out: fluorescence quenching (KA), IC50 31.20 μ (converted)
[3] = library screen, read-out: Relative inhibition rate (%)
[4] = read-out: SrtA relative inhibition rate (%)

T1 sequence (Q2FV99 60-206): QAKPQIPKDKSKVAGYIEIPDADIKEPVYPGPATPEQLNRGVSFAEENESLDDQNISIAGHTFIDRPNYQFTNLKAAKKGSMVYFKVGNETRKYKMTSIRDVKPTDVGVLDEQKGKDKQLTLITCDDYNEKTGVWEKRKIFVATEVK

SMILES | inhibition at 64 µg/mL (Sortase A (SrtA) [1]; [3]) [%] | inhibition at 64 µg/mL (Sortase A (SrtA) [1]; [4]) [%] | Kd (Sortase A (SrtA) [2]) [µM]
O=C(O[C@H]1[C@H](Oc2c(-c3ccc(O)c(O)c3)oc3cc(O)cc(O)c3c2=O)O[C@H](CO)[C@H](O)[C@@H]1O)c1cc(O)c(O)c(O)c1 [2"-O-Galloylhyperin] | 42.4 | – | –
COc1ccc(-c2cc(=O)c3c(OC)cc(OC)c(OC)c3o2)cc1 [5,7,8,4'-Tetramethoxyflavone] | 27.4 | – | –
COc1ccc(-c2cc(=O)c3c(O)c(OC)c(OC)c(OC)c3o2)cc1OC [5-Demethylnobiletin] | 54.3 | – | –
COc1ccc(-c2coc3cc(OC)ccc3c2=O)cc1 [7,4'-Dimethoxyisoflavone] | 44 | – | –
C/C=C/c1cc(OC)c2c(c1)[C@@H](C)[C@H](c1ccc3c(c1)OCO3)O2 [(-)-Licarin B] | 38.9 | – | –
COc1cc(C[C@H](C)[C@H](C)Cc2ccc3c(c2)OCO3)ccc1O [Anwulignan] | 15.6 | – | –
COc1ccc(-c2oc3cc(OC)c(OC)c(O)c3c(=O)c2OC)cc1OC [Artemetin] | 32.8 | – | –
O=c1c(O[C@@H]2O[C@@H](CO)[C@H](O)[C@H]2O)c(-c2ccc(O)c(O)c2)oc2cc(O)cc(O)c12 [Avicularin] | 45.3 | – | –
COc1ccc(-c2cc(=O)c3c(O)cc(O)cc3o2)cc1-c1c(O)cc(O)c2c(=O)cc(-c3ccc(O)cc3)oc12 [Bilobetin] | 17.8 | – | –
COc1cc(-c2oc3cc(OC)c(OC)c(O)c3c(=O)c2OC)ccc1O [Chrysosplenetin] | 34.2 | – | –
CC(C)=CCC/C(C)=C/Cc1cc(-c2coc3cc(O)ccc3c2=O)ccc1O [Corylifol A] | 36.8 | – | –
O=c1cc(-c2ccc(O)cc2)oc2cc(O[C@@H]3O[C@H](CO)[C@@H](O)[C@H](O)[C@H]3O)cc(O)c12 [Cosmosiin] | 46.8 | – | –
COc1ccc([C@@H]2OC[C@H]3[C@@H]2CO[C@@H]3c2ccc(O[C@@H]3O[C@H](CO)[C@@H](O)[C@H](O)[C@H]3O)c(OC)c2)cc1OC [Forsythin] | 14.8 | – | –
COc1cc(O)c2c(=O)cc(-c3ccc(OC)c(-c4c(O)cc(O)c5c(=O)cc(-c6ccc(O)cc6)oc45)c3)oc2c1 [Ginkgetin] | 0.25 | – | –
O=c1cc(-c2ccc(Oc3c(O)cc4oc(-c5ccc(O)cc5)cc(=O)c4c3O)cc2)oc2cc(O)cc(O)c12 [Hinokiflavone] | – | 36.2 | –
COc1c(O)cc2oc(-c3ccc(O)cc3)cc(=O)c2c1O [Hispidulin] | 50 | – | –
COc1cc(-c2coc3cc(O)c(OC)c(O)c3c2=O)cc(O)c1OC [Irigenin] | 30.3 | – | –
COc1cc2c(c(OC)c1OC)-c1c(cc3c(c1OC)OCO3)[C@H](OC(C)=O)[C@H](C)[C@H](C)C2 [Kadsurin] | 16.9 | – | –

SMILES | inhibition at 64 µg/mL (Sortase A (SrtA) [1]; [3]) [%] | inhibition at 64 µg/mL (Sortase A (SrtA) [1]; [4]) [%] | Kd (Sortase A (SrtA) [2]) [µM]
COc1ccc(-c2oc3cc(OC)cc(O)c3c(=O)c2OC)cc1 [Kaempferol 3,7,4'-trimethyl ether] | 32.6 | – | –
O=c1c(O[C@@H]2O[C@H](CO)[C@@H](O)[C@H](O)[C@H]2O[C@@H]2OC[C@@H](O)[C@H](O)[C@H]2O)c(-c2ccc(O)cc2)oc2cc(O)cc(O)c12 [Leucoside] | 27.3 | – | –
O=C(/C=C/c1ccc(O)c2c1[C@H](C(=O)O)[C@@H](c1ccc(O)c(O)c1)O2)O[C@H](Cc1ccc(O)c(O)c1)C(=O)O [Lithospermic acid] | 51.7 | – | –
C=CCc1cc(OC)c(O[C@@H](C)[C@H](O)c2ccc(O)c(OC)c2)c(OC)c1 [Myrislignan] | 1.72 | – | –
COc1cc(-c2oc3cc(O)cc(O)c3c(=O)c2O[C@@H]2O[C@H](CO[C@@H]3O[C@@H](C)[C@H](O)[C@@H](O)[C@H]3O)[C@@H](O)[C@H](O)[C@H]2O)ccc1O [Narcissin] | 44.5 | – | –
Oc1cc(O)c2c(c1)O[C@H](c1ccc(O)c(O)c1)[C@H](O)[C@H]2c1c(O)cc(O)c2c1O[C@H](c1ccc(O)c(O)c1)[C@H](O)C2 [Procyanidin B2] | 13.8 | – | –
O=c1c(O[C@@H]2O[C@H](CO)[C@@H](O)[C@H](O)[C@H]2O[C@@H]2O[C@H](CO)[C@@H](O)[C@H](O)[C@H]2O)c(-c2ccc(O)c(O)c2)oc2cc(O)cc(O)c12 [Quercetin 3-O-sophoroside] | 37.8 | – | –
O=c1cc(-c2ccc(O)cc2)oc2cc(O)c(O)c(O)c12 [Scutellarein] | 42.1 | – | –
COC(=O)[C@H]1O[C@@H](Oc2cc3oc(-c4ccc(O)cc4)cc(=O)c3c(O)c2O)[C@H](O)[C@@H](O)[C@@H]1O [Scutellarin Methyl Ester] | – | 73.8 | –
COc1ccc(-c2cc(=O)c3c(OC)c(OC)c(OC)cc3o2)cc1OC [Sinensetin] | 23.8 | – | –
O=c1c(-c2ccc(O[C@@H]3O[C@H](CO)[C@@H](O)[C@H](O)[C@H]3O)cc2)coc2cc(O)cc(O)c12 [Sophoricoside] | 14.4 | – | –
COc1ccc(-c2oc3cc(O)cc(O)c3c(=O)c2O)cc1O [Tamarixetin] | – | 26.2 | –
O=C1c2c(O)cc(O)cc2O[C@H](c2ccc(O)c(O)c2)[C@H]1O [Taxifolin] | – | 56 | –
COc1c(O[C@@H]2O[C@H](CO)[C@@H](O)[C@H](O)[C@H]2O)cc2occ(-c3ccc(O)cc3)c(=O)c2c1O [Tectoridin] | 20 | – | –
O=c1cc(-c2ccc(O)cc2)oc2c([C@@H]3O[C@H](CO)[C@@H](O)[C@H](O)[C@H]3O)c(O)c([C@@H]3O[C@H](CO)[C@@H](O)[C@H](O)[C@H]3O)c(O)c12 [Vicenin-2] | – | 67.6 | –
C[C@@H]1O[C@@H](Oc2cc(O)c3c(=O)c(O)c(-c4ccc(O)c(O)c4)oc3c2)[C@H](O)[C@H](O)[C@H]1O [Vincetoxicoside B] | – | 57.2 | –
O=C(O)[C@H]1O[C@@H](Oc2c(O)cc(O)c3c(=O)c(O)c(-c4ccc(O)c(O)c4)oc23)[C@H](O)[C@@H](O)[C@@H]1O [hibifolin] | 65.3 | 74.6 | 58.1
